From patent US8598339B2, “Withanolide isolated from Physalis longifolia and analogs and methods of use thereof” (University of Kansas, priority 2011, dated 2013)

Experiments:
[1] = test system: DRO81-1 medullary thyroid cancer cells; assay: PARP cleavage, DRO81-1; format: cell-based
[2] = In vitro metabolism, human liver microsomes; format: in vitro ADME; conditions: 1.0E-06 M
Method: (§1) The in vitro metabolism of […], as compared to known reference compounds, was analyzed using liver microsomes from human, dog (Beagle), rat (Sprague-Dawley) and mouse (CD-1). […] Results are from two independent tests.

[3] = In vitro metabolism, mouse liver microsomes; format: in vitro ADME, mouse (CD-1); conditions: 1.0E-06 M
Method: as §1

[4] = test system: Salmonella typhimurium TA98; assay: Cytotoxicity in tester strain TA98 without S9; format: cell-based
[5] = test system: Salmonella typhimurium TA1535; assay: Cytotoxicity in tester strain TA1535 without S9; format: cell-based
MDA-MB-468 = assay: MTS assay, MDA-MB-468; format: cell-based
Method: (§2) Cell proliferation was analyzed using MTS assay.

MCF-7 = assay: MTS assay, MCF-7; format: cell-based
Method: as §2

HMLEC = assay: MTS assay, HMLEC; format: cell-based; conditions: HMLEC (normal)
Method: as §2

MDA-MB-231 cells = assay: Clonogenic assay, MDA-MB-231; format: cell-based; conditions: 1-2 μM; treated 24 hours, cultured two weeks
BT20 cells = assay: Clonogenic assay, BT20; format: cell-based; conditions: 1-2 μM; treated 24 hours, cultured two weeks
ER+ MCF-7 cells = assay: Cell cycle analysis, MCF-7; format: cell-based; conditions: 1-2 μM; 24-hour treatment
[6] = test system: HSF1, Hsp70 and Hsp40 mRNA; assay: HSF1, Hsp70 and Hsp40 mRNA levels; format: cell-based; conditions: Control 1.0
Method: Levels of HSF1, Hsp70 and Hsp40 mRNA were also determined in response to treatment with SX002 or X003 for 8 or 16 hours.

[7] = test system: Hsp70 and Hsp40 in Hs766T cells; assay: Heat shock-induced Hsp70 and Hsp40 protein levels, Hs766T; format: cell-based; conditions: pretreatment 8 hours; 30-minute heat shock at 42° C.; further 8 hours
Method: For this analysis, Hs766T cells were incubated with X003 for 8 hours, followed by a 30-minute heat shock at 42° C. The cells were further incubated for 8 hours and Hsp70 and Hsp40 levels were determined.

## CC1=C(CO)C(=O)O[C@@H]([C@@H](C)C2CC[C@H]3[C@@H]4C[C@H]5O[C@]56[C@@H](O)C=CC(=O)[C@]6(CO)[C@H]4CC[C@]23C)C1 (some centres unmarked) [Compound X001]
[1]
  cleavage of PARP starting at (concentration): 500 nM
[2]
  Mean % Parent Compound Remaining: 27%
[3]
  Mean % Parent Compound Remaining: 29%
[4]; 1.0E−04 M
  Cytotoxicity (% of Control): 98 % of Control
[4]; 1.0E−05 M
  Cytotoxicity (% of Control): 86 % of Control
[4]; 1.3E−06 M
  Cytotoxicity (% of Control): 89 % of Control
[4]; 2.5E−05 M
  Cytotoxicity (% of Control): 86 % of Control
[4]; 2.5E−06 M
  Cytotoxicity (% of Control): 87 % of Control
[4]; 5.0E−05 M
  Cytotoxicity (% of Control): 85 % of Control
[4]; 5.0E−06 M
  Cytotoxicity (% of Control): 86 % of Control
[4]; 6.3E−07 M
  Cytotoxicity (% of Control): 95 % of Control
[5]; 1.0E−04 M
  Cytotoxicity (% of Control): 111 % of Control
[5]; 1.0E−05 M
  Cytotoxicity (% of Control): 97 % of Control
[5]; 1.3E−06 M
  Cytotoxicity (% of Control): 99 % of Control
[5]; 2.5E−05 M
  Cytotoxicity (% of Control): 100 % of Control
[5]; 2.5E−06 M
  Cytotoxicity (% of Control): 97 % of Control
[5]; 5.0E−05 M
  Cytotoxicity (% of Control): 109 % of Control
[5]; 5.0E−06 M
  Cytotoxicity (% of Control): 98 % of Control
[5]; 6.3E−07 M
  Cytotoxicity (% of Control): 99 % of Control
MDA-MB-468
  Log ECF: 0.32
MCF-7
  Log ECF: 1.88
HMLEC
  Log ECF: 2.54
MDA-MB-231 cells
  colony formation: strongly inhibited
BT20 cells
  colony formation: not as potent
ER+ MCF-7 cells
  cell cycle effect: G2/M cell cycle arrest

## CC(=O)OCC1=C(C)C[C@H]([C@@H](C)C2CC[C@H]3[C@@H]4C[C@H]5O[C@]56[C@@H](OC(C)=O)C=CC(=O)[C@]6(COC(C)=O)[C@H]4CC[C@]23C)OC1=O (some centres unmarked) [Compound X003, 4,19,27-triacetyl X001]
[6]; 8 hours
  HSF1 mRNA level: 1.2
  HSP40 mRNA level: 8.3
  HSP70 mRNA level: 30.8
[6]; 16 hours
  HSF1 mRNA level: 1.1
  HSP40 mRNA level: 14.2
  HSP70 mRNA level: 183.1
[7]
  heat shock-induced Hsp70 and Hsp40 protein levels: failed to block
